Test system: hepatic injury induced by carbon tetrachloride (CCl4)
Assay: mouse model of hepatic injury induced by carbon tetrachloride (CCl4); serum ALT and AST
Assay type: in vivo
Conditions: ICR mice; for increase in serum ALT compared to the vehicle control / increase in serum AST compared to the vehicle control: CCl4
Description: An indomethacin-simvastatin conjugate (Ind-S) and lovastatin alone were evaluated for possible hepatoprotective activity in a mouse model of hepatic injury induced by carbon tetrachloride (CCl4). Ind-S at 0.5, 1 and 5 μmol/kg and lovastatin at 30 mg/kg were each administered intraperitoneally 0.5 hour before and at 4 and 8 hours after CCl4 challenge. The degree of hepatic injury was manifested by increases in alanine aminotransferase (ALT) and aspartate aminotransferase (AST) levels relative to the vehicle-treated animals. A decrease of 30% or more in serum ALT or AST is considered significant protective activity. The test substances were provided at the indicated concentrations. […] The test substances were administered intraperitoneally at 0.5 hour before and 4 and 8 hours after CCl4 administration to test mice. The dosing volume was 5 mL/kg. Male ICR derived mice weighing 24±2 g and provided by BioLasco Taiwan, a Charles River Laboratories Technology Licensee, were used in the study Space allocation for animals was 29×18×13 cm for 10 mice. The animals were housed in APEC^R cages. All animals were maintained in a hygienic environment under controlled temperature (22-24° C.) and humidity (60%-70%) with 12 hours light/dark cycles for at least one week prior to use with free access to standard lab chow (LabDiet Rodent Diet, PMI Nutrition International, USA) and tap water. Seven groups of five ICR derived male mice (weighing 24±2 g) were used. Each animal was challenged with a single dose of carbon tetrachloride (CCl4, 0.1 mL/kg in 50% olive oil, PO). The test substances were administered intraperitoneally at 30 minutes before and 4, 8 hours after carbon tetrachloride challenge and the animals were sacrificed 24 hours later. Serum alanine aminotransferase (ALT) and aspartate aminotransferase (AST) levels were measured by optimized UV method using a HITACHI automatic analyzer (model 7050). Silymarin (300 mg/kg, PO) as the positive control agent was administered orally to test animals at the same time.

COc1ccc2c(c1)c(CC(=O)OCCNC(=O)CCC(C)(C)C(=O)O[C@H]1C[C@@H](C)C=C3C=C[C@H](C)[C@H](CC[C@@H]4C[C@@H](O)CC(=O)O4)[C@H]31)c(C)n2C(=O)c1ccc(Cl)cc1 [Ind-S, 6(R)-[2-[8(S)-{4-(2-{2-[1-(4-Chloro-benzoyl)-5-methoxy-2-methyl-1H-indol-3-yl]-acetoxy}-ethylcarbamoyl)-2,2-dimethyl-butyryloxy}-2(S),6(R)-dimethyl-1,2,6,7,8,8,a(R)-hexahydronaphthyl-1(S)]ethyl]-4(R)-hydroxy-3,4,5,6-tetrahydro-2H-Pyran-2-one]
reduction in serum ALT level relative to the vehicle-treated group (5 μmol/kg IP, 0.5 h before and 4 and 8 h after CCl4, non-significant): 21% | reduction of AST activity relative to the vehicle-treated group (5 μmol/kg IP, 0.5 h before and 4 and 8 h after CCl4, serum at 24 h): 34%

CC[C@H](C)C(=O)O[C@H]1C[C@@H](C)C=C2C=C[C@H](C)[C@H](CC[C@@H]3C[C@@H](O)CC(=O)O3)[C@H]21 [Lovastatin]
increase in serum ALT compared to the vehicle control (30 mg/kg IP): 17% | increase in serum AST compared to the vehicle control (30 mg/kg IP): 38%

COc1ccc2c(c1)c(CC(=O)O)c(C)n2C(=O)c1ccc(Cl)cc1 [indomethacin]
increase in serum ALT compared to the vehicle control (5 μmol/kg IP): 39% | increase in serum AST compared to the vehicle control (5 μmol/kg IP): 73%

Reference: patent US9585964B2, “Liver targeted conjugates” (President and Fellows of Harvard College, priority 2005, dated 2017)
